pIC50: −log10 of the molar value. Structures can show the parent of a compound that is named as a salt. Where two headings read alike, the source gives them in different places.
Molecular target: T1, human calcium receptor (Homo sapiens, UniProt P41180)
T1 construct: expressed in transfected cells
T1 sequence (P41180 20-1078): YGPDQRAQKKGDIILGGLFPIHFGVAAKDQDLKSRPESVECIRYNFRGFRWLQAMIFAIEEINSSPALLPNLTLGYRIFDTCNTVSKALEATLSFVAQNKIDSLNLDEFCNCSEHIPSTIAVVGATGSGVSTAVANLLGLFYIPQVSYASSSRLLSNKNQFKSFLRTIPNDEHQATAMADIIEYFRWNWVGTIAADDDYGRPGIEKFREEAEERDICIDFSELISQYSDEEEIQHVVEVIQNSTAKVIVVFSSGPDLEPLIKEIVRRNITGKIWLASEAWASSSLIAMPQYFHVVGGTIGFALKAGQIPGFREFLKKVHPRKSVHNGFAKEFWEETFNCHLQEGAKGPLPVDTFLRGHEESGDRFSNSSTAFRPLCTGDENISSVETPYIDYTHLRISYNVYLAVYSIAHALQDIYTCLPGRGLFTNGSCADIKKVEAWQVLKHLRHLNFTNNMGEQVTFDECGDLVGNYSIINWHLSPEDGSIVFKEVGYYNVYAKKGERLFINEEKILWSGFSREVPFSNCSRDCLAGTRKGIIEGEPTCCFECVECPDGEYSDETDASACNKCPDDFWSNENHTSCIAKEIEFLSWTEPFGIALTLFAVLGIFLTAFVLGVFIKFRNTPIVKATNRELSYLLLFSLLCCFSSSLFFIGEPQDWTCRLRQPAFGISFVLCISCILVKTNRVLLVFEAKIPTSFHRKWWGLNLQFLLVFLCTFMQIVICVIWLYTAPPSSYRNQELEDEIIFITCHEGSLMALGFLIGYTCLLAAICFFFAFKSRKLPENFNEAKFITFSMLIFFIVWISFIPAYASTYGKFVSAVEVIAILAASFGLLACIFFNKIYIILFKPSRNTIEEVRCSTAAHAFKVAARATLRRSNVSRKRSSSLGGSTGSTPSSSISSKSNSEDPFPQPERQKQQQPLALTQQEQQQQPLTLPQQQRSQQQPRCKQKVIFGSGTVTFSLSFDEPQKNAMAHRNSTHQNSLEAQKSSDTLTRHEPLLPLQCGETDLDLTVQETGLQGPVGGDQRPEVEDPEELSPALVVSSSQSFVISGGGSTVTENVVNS
Assay: Calcium Receptor Inhibitor Assay
Assay type: cell-based
Experimental: This example illustrates the use of the Calcium Receptor Inhibitor Assay. […] Res. 10 Suppl. […] Intracellular Ca^2+ was measured using fluo-3, a fluorescent calcium indicator.
The procedure was as follows:
1. Cells were maintained in T-150 flasks in selection media (DMEM supplemented with 10% fetal bovine serum and 200 μg/mL hygromycin B), under 5% CO2:95% air at 37° C. and were grown up to 90% confluency.
2. The medium was decanted and the cell monolayer was washed twice with phosphate-buffered saline (PBS) kept at 37° C. After the second wash, 6 mL of 0.02% EDTA in PBS was added and incubated for 4 minutes at 37° C. Following the incubation, cells were dispersed by gentle agitation.
3. Cells from 2 or 3 flasks were pooled and pelleted (100×g). The cellular pellet was resuspended in […] of SPF-PCB+ and pelleted again by centrifugation. This washing was done twice.
SPF-PCB was made up and stored at 4° C. On the day of use, SPF-PCB was supplemented with 1 mg/mL of D-glucose and 1 mM CaCl2 and then split into two fractions. To one fraction, bovine serum albumin (BSA; fraction V, ICN) was added at 5 mg/mL (SPF-PCB+). This buffer was used for washing, loading and maintaining the cells. The BSA-free fraction was used for diluting the cells in the cuvette for measurements of fluorescence.
5. Following the incubation period, the cells were pelleted by centrifugation. The resulting pellet was washed with SPF-PCB+. After this washing, cells were resuspended in SPF-PCB+ at a density of 1–2×10^6 cells/mL.
6. For recording fluorescent signals, 300 μL of cell suspension were diluted in 1.2 mL of SPF buffer containing 1 mM CaCl2 and 1 mg/mL of D-glucose. Measurements of fluorescence were performed at 37° C. with constant stirring using a spectrofluorimeter. […] To calibrate fluorescence signals, digitonin (5 mg/mL in ethanol) was added to obtain Fmax, and the apparent Fmin was determined by adding Tris-EGTA (2.5 M Tris-Base, 0.3 M EGTA).
7. To determine the potential calcilytic activity of test compounds, cells were incubated with test compound (or vehicle as a control) for 90 seconds before increasing the concentration of extracellular Ca^2+ from 1 to 2 mM. Calcilytic compounds were detected by their ability to block, in a concentration-dependent manner, increases in the concentration of intracellular Ca^2+ elicited by extracellular Ca^2+.

[1] = HEK 293 4.0–7 cells stably expressing the human calcium receptor, fluo-3, read-out: IC50 for blocking increases of intracellular Ca2+ elicited by extracellular Ca2+

SMILES	pIC50 [1]	pIC50
CCOc1ccc(OCC(O)CNC(C)(C)Cc2ccc(OC)cc2)cc1 (centres unmarked) [Compound 144, N-[2-hydroxy-3-(4-ethoxyphenoxy)propyl]-1,1-dimethyl-2-(4-methoxyphenyl)ethylamine Hydrochloride]	> 5.00	
COc1ccc(CC(C)(C)NCC(O)COc2ccc(F)cc2)cc1 (centres unmarked) [Compound 44, N-[2-Hydroxy-3-(4-fluorophenoxy)propyl]-1,1-dimethyl-2-(4-methoxyphenyl)ethylamine Hydrochloride]	> 6.00	
COc1ccc(CC(C)(C)NCCCCOc2ccccc2)cc1 [Compound 36, N-(4-phenoxybutyl)-1,1-dimethyl-2-(4-methoxyphenyl)ethylamine]	< 4.30	
CC(C)(Cc1ccccc1)NCC(O)COc1cccc2ccccc12 (centres unmarked) [Compound 55, N-[2-hydroxy-3-(1-naphthoxy)propyl]-1,1-dimethyl-2-phenylethylamine]	< 4.30	
COc1ccc(CC(C)(C)NCCc2ccccc2)cc1 [Compound 84, N-(2-Phenylethyl)-1,1-dimethyl-2-(4-methoxyphenyl)ethylamine]		< 4.30
COc1ccc(CC(C)(C)NCC(O)COc2ccccc2OC)cc1 (centres unmarked) [Compound 49, N-[2-Hydroxy-3-(2-methoxyphenoxy)propyl]-1,1-dimethyl-2-(4-methoxyphenyl)ethylamine Hydrochloride]	> 5.00	
COc1ccc(CC(C)(C)NCC(O)COc2ccc(Cl)cc2Cl)cc1 (centres unmarked) [Compound 138, N-[2-hydroxy-3-(2,4-dichlorophenoxy)propyl]-1,1-dimethyl-2-(4-methoxyphenyl)ethylamine Hydrochloride]	> 6.00	
COc1ccc(CC(C)(C)NCC(O)CCc2cccc(Cl)c2Cl)cc1 (racemic) [Compound 163]		> 6.00
COc1ccc(CC(C)(C)NCC(COc2ccccc2)OC)cc1 (centres unmarked) [Compound 59, N-(2-Methoxy-3-phenoxypropyl)-1,1-dimethyl-2-(4-methoxyphenyl)ethylamine Hydrochloride]	> 5.00	
COc1ccc(CC(C)(C)NCC(O)COCC2CCCCC2)cc1 (centres unmarked) [Compound 75, N-(2-Hydroxy-3-cyclohexylmethoxypropyl)-1,1-dimethyl-2-(4-methoxyphenyl)ethylamine Hydrochloride]		> 5.00
C=CCOCC(O)CNC(C)(C)Cc1ccc(OC)cc1 (centres unmarked) [Compound 29, N-(2-Hydroxy-3-allyloxypropyl)-1,1-dimethyl-2-(4-methoxyphenyl)ethylamine]		> 4.30
CCc1ccccc1OCC(O)CNC(C)(C)Cc1ccc(OC)cc1 (centres unmarked) [Compound 151, N-[2-hydroxy-3-(2-ethylphenoxy)propyl]-1,1-dimethyl-2-(4-methoxyphenyl)ethylamine Hydrochloride]	> 6.00	
COc1ccc(CC(C)(C)NCC(O)COc2cccc(C(F)(F)F)c2)cc1 (centres unmarked) [Compound 46, N-[2-Hydroxy-3-(3-trifluoromethylphenoxy)propyl]-1,1-dimethyl-2-(4-methoxyphenyl)ethylamine Hydrochloride]	> 6.00	
COc1ccc(CC(C)(C)NCC(O)COc2ccccc2[N+](=O)[O-])cc1 (centres unmarked) [Compound 159, N-[2-hydroxy-3-(2-nitrophenoxy)propyl]-1,1-dimethyl-2-(4-methoxyphenyl)ethylamine Hydrochloride]	> 6.00	
Cc1ccc(CC(C)(C)NCC(O)COc2ccccc2)cc1C (centres unmarked) [Compound 121, N-(2-Hydroxy-3-phenoxy)propyl)-1,1-dimethyl-2-(3,4-dimethylphenyl)ethylamine Hydrochloride]	> 6.00	
COc1ccc(CC(C)(C)NCC(O)COc2ccc(C(F)(F)F)cc2)cc1 (centres unmarked) [Compound 51, N-[2-Hydroxy-3-(4-trifluoromethylphenoxy)propyl]-1,1-dimethyl-2-(4-methoxyphenyl)ethylamine Hydrochloride]	> 6.00	
COc1ccc(CC(C)(C)NCC(O)COc2ccc(-c3ccccc3)cc2)cc1 (centres unmarked) [Compound 62, N-[2-Hydroxy-3-(4-phenylphenoxy)propyl]-1,1-dimethyl-2-(4-methoxyphenyl)ethylamine]	< 4.30	
CCCCC(CC)COCC(O)CNC(C)(C)Cc1ccc(OC)cc1 (centres unmarked) [Compound 28, N-[2-Hydroxy-3-(2-ethyl)hexanoxypropyl]-1,1-dimethyl-2-(4-methoxyphenyl)ethylamine]		> 6.00
CCCc1ccc(OCC(O)CNC(C)(C)Cc2ccc(OC)cc2)cc1 (centres unmarked) [Compound 149, N-[2-hydroxy-3-(4-n-propylphenoxy)propyl]-1,1-dimethyl-2-(4-methoxyphenyl)ethylamine Hydrochloride]	> 6.00	
CCCCCCCCCCC(O)CNC(C)(C)Cc1ccc(OC)cc1 (centres unmarked) [Compound 70, N-(2-Hydroxydodecanyl)-1.1-dimethyl-2-(4-methoxyphenyl)ethylamine]		< 4.30
CC(C)(Cc1ccc(OC(F)(F)F)cc1)NCC(O)COc1ccccc1 (centres unmarked) [Compound 111, N-(2-Hydroxy-3-phenoxypropyl)-1,1-dimethyl-2-(4-trifluoromethoxyphenyl)ethylamine Hydrochloride]	> 5.00	
COc1ccc(CC(C)(C)NCC(O)COc2ccc(Cl)cc2)cc1 (centres unmarked) [Compound 5, N-[2-Hydroxy-3-(4-chlorophenoxy)propyl]-1,1-dimethyl-2-(4-methoxyphenylethylamine Hydrochloride]	> 6.00	
COc1ccc(CC(C)(C)NCC(O)COc2cccc(F)c2)cc1 (centres unmarked) [Compound 39, N-[2-Hydroxy-3-(3-fluorophenoxy)propyl]-1,1-dimethyl-2-(4-methoxyphenyl)ethylamine Hydrochloride]	> 5.00	
COc1ccc(CC(C)(C)NCC(O)COc2ccccc2F)cc1 (centres unmarked) [Compound 41, N-[2-Hydroxy-3-(2-fluorophenoxy)propyl]-1.1-dimethyl-2-(4-methoxyphenyl)ethylamine Hydrochloride]	> 5.00	
COc1ccc(CC(C)(C)NCCCc2ccccc2)cc1 [Compound 22, N-(3-phenylpropyl)-1,1-dimethyl-2(4-methoxyphenyl)ethylamine]		< 4.30
COc1ccc(CC(C)(C)NCC(O)Cc2ccc3c(c2)OCO3)cc1 (centres unmarked) [Compound 124, N-[2-hydroxy-3-(3,4-methylene-dioxyphenyl)propyl]-1,1-dimethyl-2-(4-methoxyphenyl)ethylamine Hydrochloride]		> 5.00
CC(C)(Cc1cccc(Cl)c1)NCC(O)COc1ccccc1 (centres unmarked) [Compound 104, N-(2-Hydroxy-3-phenoxypropyl)-1,1-dimethyl-2-(3-chlorophenyl)ethylamine Hydrochloride]	> 5.00	
COc1ccc(CC(C)(C)NCC(O)COc2cccc(Cl)c2Cl)cc1 (centres unmarked) [Compound 136, N-[2-hydroxy-3-(2,3-dichlorophenoxy)propyl]-1,1-dimethyl-2-(4-methoxyphenyl)ethylamine Hydrochloride]	> 6.00	
COc1ccc(CC(C)(C)NCCOc2ccccc2)cc1 [Compound 53, N-(2-phenoxyethyl)-1,1-dimethyl-2-(4-methoxyphenyl)ethylamine]	< 4.30	

Reference: patent US7202261B2, “Calcilytic compounds” (NPS Pharmaceuticals, Inc., priority 1996, dated 2007)
